Source: publication PMC6286779, “HLA-A2-Restricted Epitopes Identified from MTA1 Could Elicit Antigen-Specific Cytotoxic T Lymphocyte Response” (Journal of Immunology Research, 2018)
No end group written: not given here.

Key:
[1] = tested on: SW620 incubated with an anti-human HLA-A2 antibody; assay: LDH cytotoxicity assay, CTLs induced in vitro, HLA-A2 blocked; assay type: cell-based; settings: peptide-induced CTLs, BB7.2 added 30 min before effectors
Protocol: (§1) CTL induction in vitro was conducted according to the procedures previously described. Briefly, PBMCs from eight HLA-A^∗02^+ healthy donors were isolated using Ficoll-Paque density gradient centrifugation and resuspended in RPMI 1640 medium supplemented with 10% FBS. Then, PBMCs were stimulated three times (once a week) with the indicated peptides (10 μg/ml) or protein MTA1(1–283) (at final concentrations of 0, 1, 10, 30, and 50 μg/ml) for 21 days. Human recombinant cytokine interleukin-2 (IL-2) (50 U/ml) was added on day 3 and 1 day after each stimulation. The cytotoxic assay (lactate dehydrogenase (LDH) assay) and IFN-γ secretion enzyme-linked immunospot (ELISPOT) assay were performed on day 21.
(§2) Cytotoxic activity of induced T cells was tested based on the quantitation of LDH release using the nonradioactive cytotoxicity assay kit (Promega, USA) at the gradient E/T ratio [29, 31]. Target cells which expressed different levels of MTA1 or peptide-pulsed T2 cells were used as target cells. The anti-human HLA-A2 antibody (BB7.2) was added 30 min before adding effector cells to determine the HLA restriction. Target cells (5 × 10^3/well) were cocultured with the effector cells at 37°C for 4 h. The percentage of specific lysis of the target cells was determined using the equation: percentage of specific lysis = [(experimental release − effector spontaneous release − target spontaneous release)/(target maximum release − target spontaneous release)] × 100.

[2] = biological target: T1, peptide/HLA-A*0201 complexes (Homo sapiens, UniProt P04439, D140Y/D185E/D98H/E176V/E277Q/G131W/G231S/I119V/I121R/I166T/I218V/L300P/L318F/N151K/N90K/P208A/P217A/Q86G/Q94H/R138H/R169H/T345S); assay: T2 stabilization (stability) assay; assay type: binding; settings: T2 cells, peptide 50 μg/ml, 18 h, then brefeldin A 10 μg/ml 1 h; read at 0, 2, 4, 6 h, 37°C; flow cytometry
T1 construct: endogenous in cells; host or cells: T2 lymphoblastic cell line (TAP-deficient)
Protocol: For the stability assay, each of the selected peptides (50 μg/ml) was incubated with T2 cells (1 × 10^6 cells/ml) for 18 h in serum-free RPMI 1640 medium supplemented with 3 μg/ml β2-M at 37°C. Thereafter, cells were washed twice and incubated with brefeldin A (10 μg/ml, eBiosciences, USA) for 1 h. Subsequently, the cells were washed and incubated for 0, 2, 4, and 6 h at 37°C. Cells were washed twice, stained with BB7.2 for 0.5 h at 4°C. Finally, cells were collected, washed, and analyzed by flow cytometry. Dissociation complex 50 (DC50) was defined as time (t) required for the loss of 50% of the HLA-A^∗0201/peptide complexes stabilized at 0 h.

[3] = tested on: MCF-7 (HLA-A2+, MTA1+); assay: LDH cytotoxicity assay, CTLs induced in vitro; assay type: cell-based, human; settings: peptide-induced CTLs from healthy donors, E/T 50 : 1
Protocol: as §1, §2

[4] = tested on: SW620 (HLA-A2+, MTA1+); assay: LDH cytotoxicity assay, CTLs induced in vitro; assay type: cell-based, human; settings: CTLs induced by peptide 10 μg/ml from donor no. 6; E/T 50 : 1; LDH release, 4 h; n = 3
Protocol: as §1, §2

[5] = tested on: HT-29 (HLA-A2−, MTA1+); assay: LDH cytotoxicity assay, CTLs induced in vitro; assay type: cell-based, human; settings: peptide-induced CTLs, HLA-A2-negative control target
Protocol: as §1, §2

[6] = tested on: MDA-MB-231 (HLA-A2+, MTA1+); assay: LDH cytotoxicity assay, CTLs induced in vitro; assay type: cell-based, human; settings: CTLs induced by peptide 10 μg/ml from donor no. 6; E/T 50 : 1; LDH release, 4 h; n = 3
Protocol: as §1, §2

[7] = tested on: PBMCs from HLA-A*02+ healthy donors; assay: IFN-γ ELISPOT of CTLs induced in vitro; assay type: cell-based, human; settings: PBMCs of six donors stimulated with peptide 10 μg/ml three times, day 21; stimulators peptide-pulsed T2 cells (50 μg/ml); 1 × 10^5 effectors; mean, n = 6
Protocol: as §1
The ELISPOT assay was performed using a commercial kit (Dakewe, China) according to the procedures previously described. Briefly, T2 cells incubated with/without candidate peptide (50 μg/ml) were used as the stimulating cells, effector cells (1 × 10^5) and stimulator cells (peptide-pulsed T2 cells or T2 cells only, 1 × 10^5) were seeded into the 96-well plate precoated with an anti-human (or anti-mouse) IFN-γ antibody. After incubation at 37°C for 18 h, cells were removed, and plates were processed for analysis as instructed. The spot number was determined automatically using a computer-assisted spot analyzer (Dakewe, China).

[8] = biological target: HLA-A*0201 molecules (Homo sapiens, UniProt P04439, D140Y/D185E/D98H/E176V/E277Q/G131W/G231S/I119V/I121R/I166T/I218V/L300P/L318F/N151K/N90K/P208A/P217A/Q86G/Q94H/R138H/R169H/T345S); assay: T2 binding assay; settings: T2 cells 1 × 10^6 cells/ml, peptide 50 μg/ml, 3 μg/ml β2-M, serum-free RPMI 1640, 18 h, 37°C; BB7.2 staining, flow cytometry; FI > 1.5 = high affinity
Protocol: The binding affinity of these peptides to HLA-A^∗0201 was evaluated according to our previous study. Briefly, T2 cells (1 × 10^6 cells/ml) were incubated with each peptide (50 μg/ml) and 3 μg/ml human β2-microglobulin (β2-M, Merck, Germany) in serum-free RPMI 1640 medium for 18 h at 37°C in a humidified atmosphere of 5% CO2. Then cells were washed twice and incubated with the anti-human HLA-A2 PE-Cyanine7 mAb, BB7.2 (eBioscience, USA) for 0.5 h at 4°C. Finally, cells were collected, washed, and analyzed using flow cytometry (FACSCalibur, Becton Dickinson, USA). The fluorescence index (FI) calculation was performed as follows: FI = [(mean fluorescence intensity (MFI) of the given peptide − background) − (MFI of the PBS control group − background)]/[(MFI of the PBS control group − background)]. The MFI value of cells untreated with peptides and antibodies was employed as background. Peptides with an FI factor of more than 1.5 were classed as high-affinity candidates.

[9] = tested on: Het-1A (HLA-A2+, MTA1low); assay: LDH cytotoxicity assay, CTLs induced in vitro; assay type: cell-based, human; settings: peptide-induced CD8+ T cells, E/T 50 : 1
Protocol: as §1, §2

[10] = biological target: HLA-A*0201 molecule on T2 cells (human (endogenous in T2) | human); assay: flow cytometry on cells; stability assay: T2 cells loaded with peptide (50 μg/ml) and 3 μg/ml β2-M for 18 h at 37°C, brefeldin A (10 μg/ml) 1 h, then 0, 2, 4 and 6 h at 37°C; stained with BB7.2; DC50 = time for the loss of 50% of the HLA-A*0201/peptide complexes stabilized at 0 h
[11] = biological target: HLA-A*0201 molecule on T2 cells (human (endogenous in T2) | human); assay: flow cytometry on cells; T2 binding assay: T2 cells (1 x 10^6 cells/ml) with peptide (50 μg/ml) and 3 μg/ml human β2-M in serum-free RPMI 1640, 18 h, 37°C; surface HLA-A2 stained with BB7.2 PE-Cyanine7; fluorescence index (FI); FI > 1.5 classed as high affinity

Molecule | FI (fluorescence index) [8] | DC50 [10] | FI (fluorescence index) [11] | further results
ALADKHATL [Peptide P57] | 1.56 |  |  | lysis of SW620 cells incubated with an HLA-A2 blocking antibody [1]: did not lyse; DC50: time required for the loss of 50% of the HLA-A*0201/peptide complexes stabilized at 0 h [2]: >6 h; rate of MCF-7 cell lysis [3]: 17.6%; lysis rate of SW620 cells [4]: 45.8%; lysis of HT-29 cells [5]: did not lyse; lysis rate of MDA-MB-231 cells [6]: 30.5%; IFN-γ ELISPOT mean spot intensities [7]: 543
FLSRQLESL [Peptide P109] | 2.61 |  |  | lysis of SW620 cells incubated with an HLA-A2 blocking antibody [1]: did not lyse; DC50: time required for the loss of 50% of the HLA-A*0201/peptide complexes stabilized at 0 h [2]: >6 h; rate of MCF-7 cell lysis [3]: 23.8%; lysis rate of SW620 cells [4]: 65.5%; rate of Het-1A cell lysis [9]: 11.9%; lysis of HT-29 cells [5]: did not lyse; lysis rate of MDA-MB-231 cells [6]: 32.2%; IFN-γ ELISPOT mean spot intensities [7]: 453
HBcAg 18-27 peptide |  | > 6 h |  | 
ILIGETIKI [COX-2_321-329, reference compound] | 1.905 |  |  | DC50: time required for the loss of 50% of the HLA-A*0201/peptide complexes stabilized at 0 h [2]: >6 h
YQADITDLL [Peptide P173] | 0.22 |  |  | 
YQADITDLL [MTA1 peptide P173] |  |  | 0.22 | 
ILIGETIKI (not fully specified) [cyclooxygenase-2 (COX-2) 321-329 peptide] |  | > 6 h | 1.91 | 
TLLNETESL [MTA1 peptide P129] |  | > 6 h | 1.28 | 
YLIRRIEEL [MTA1 peptide P22] |  | > 2 h | 2.08 | 
FLSRQLESL [MTA1 peptide P109] |  | > 6 h | 2.61 | 
ALADKHATL [MTA1 peptide P57] |  | > 6 h | 1.56 | 
